Test results published in the supplement of paper PMC4862054.

How the values were obtained:
Experiment in all cases: normalised viability (% of control), CellTiter-Blue; higher = more viable cells (about 100 = DMSO control)
Settings in all cases: incubation time: 72 h
CAL-148 [1] = test system: CAL-148
Protocol: (§1)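 DSRT, CellTiter-Blue viability, 72 h incubation. Signal is normalised to DMSO and benzethonium chloride controls. Value is the normalised response at dose 9.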

CAL-51 [2] = test system: CAL-51
Protocol: as §1

CAL-85-1 [3] = test system: CAL-85-1
Protocol: as §1

DU-4475 [4] = test system: DU-4475
Protocol: as §1

HDQ-P1 [5] = test system: HDQ-P1
Protocol: as §1

MDA-MB-453 [6] = test system: MDA-MB-453
Protocol: as §1

CAL-148 [7] = test system: CAL-148; remark: listed apart in the source
Protocol: (§2)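 DSRT, CellTiter-Blue viability, 72 h incubation. Signal is normalised to DMSO and benzethonium chloride controls. Value is the normalised response at dose 8.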

CAL-51 [8] = test system: CAL-51; remark: listed apart in the source
Protocol: as §2

CAL-85-1 [9] = test system: CAL-85-1; remark: listed apart in the source
Protocol: as §2

DU-4475 [10] = test system: DU-4475; remark: listed apart in the source
Protocol: as §2

HDQ-P1 [11] = test system: HDQ-P1; remark: listed apart in the source
Protocol: as §2

MDA-MB-453 [12] = test system: MDA-MB-453; remark: listed apart in the source
Protocol: as §2

SMILES	normalised viability (CAL-148 [1]) [%]	normalised viability (CAL-51 [2]) [%]	normalised viability (CAL-85-1 [3]) [%]	normalised viability (DU-4475 [4]) [%]	normalised viability (HDQ-P1 [5]) [%]	normalised viability (MDA-MB-453 [6]) [%]	normalised viability (CAL-148 [7]) [%]	normalised viability (CAL-51 [8]) [%]	normalised viability (CAL-85-1 [9]) [%]	normalised viability (DU-4475 [10]) [%]	normalised viability (HDQ-P1 [11]) [%]	normalised viability (MDA-MB-453 [12]) [%]
N[C@@H](Cc1ccc(N(CCCl)CCCl)cc1)C(=O)O [Melphalan] (990 nM)	74.2	68.8	72.1	62.4	94	95.8	–	–	–	–	–	–
CO[C@H]1C[C@@H]2CC[C@@H](C)[C@@](O)(O2)C(=O)C(=O)N2CCCC[C@H]2C(=O)O[C@H]([C@H](C)C[C@@H]2CC[C@@H](O)[C@H](OC)C2)CC(=O)[C@H](C)/C=C(\C)[C@@H](O)[C@@H](OC)C(=O)[C@H](C)C[C@H](C)/C=C/C=C/C=C/1C [Sirolimus] (300 nM)	–	–	–	–	–	–	39.1	31.1	59.8	63.7	58.8	31.6
CC/C(=C(\c1ccccc1)c1ccc(OCCN(C)C)cc1)c1ccccc1 [Tamoxifen] (3000 nM)	–	–	–	–	–	–	117	99.1	102	106	100	89.7
Cn1nnc2c(C(N)=O)ncn2c1=O [Temozolomide] (3000 nM)	–	–	–	–	–	–	88.8	93.6	97.3	100	103	104
C[C@@H](CN1CC(=O)NC(=O)C1)N1CC(=O)NC(=O)C1 [Dexrazoxane] (3000 nM)	–	–	–	–	–	–	96	83.9	104	92.8	98.1	87.5
C[C@@H](CN1CC(=O)NC(=O)C1)N1CC(=O)NC(=O)C1 [Dexrazoxane] (10000 nM)	96.2	92.9	93.7	102	85.2	100	–	–	–	–	–	–
NC(=O)c1cccc2cn(-c3ccc([C@@H]4CCCNC4)cc3)nc12 [MK-4827] (3000 nM)	–	–	–	–	–	–	73.5	48.8	85.8	58.6	91.3	101
Cc1c(C(=O)Nc2ccc(N3C[C@@H](C)O[C@@H](C)C3)nc2)cccc1-c1ccc(OC(F)(F)F)cc1 [NVP-LDE225] (10000 nM)	121	92.5	98.4	110	127	82.8	–	–	–	–	–	–
O=C(c1cc(Cc2n[nH]c(=O)c3ccccc23)ccc1F)N1CCN(C(=O)C2CC2)CC1 [Olaparib] (3000 nM)	–	–	–	–	–	–	64.2	68.9	71.4	72.4	100	93
CO[C@H]1C[C@@H]2CC[C@@H](C)[C@@](O)(O2)C(=O)C(=O)N2CCCC[C@H]2C(=O)O[C@H]([C@H](C)C[C@@H]2CC[C@@H](O)[C@H](OC)C2)CC(=O)[C@H](C)/C=C(\C)[C@@H](O)[C@@H](OC)C(=O)[C@H](C)C[C@H](C)/C=C/C=C/C=C/1C [Sirolimus] (1000 nM)	44	26.1	59.3	59.9	70.3	25.3	–	–	–	–	–	–
CC(C)C[C@H](NC(=O)[C@H](CCc1ccccc1)NC(=O)CN1CCOCC1)C(=O)N[C@@H](Cc1ccccc1)C(=O)N[C@@H](CC(C)C)C(=O)[C@@]1(C)CO1 [Carfilzomib] (300 nM)	–	–	–	–	–	–	1.83	2.56	2.07	1.31	0.3	18.1
CC[C@@H]1C(=O)N(C)c2cnc(Nc3ccc(C(=O)N[C@H]4CC[C@H](N5CCN(CC6CC6)CC5)CC4)cc3OC)nc2N1C(C)C [Volasertib] (300 nM)	–	–	–	–	–	–	26.6	9.3	64.6	18.6	59.4	34.3
COc1cc2c(N3CCN(C(=O)Nc4ccc(OC(C)C)cc4)CC3)ncnc2cc1OCCCN1CCCCC1 [Tandutinib] (300 nM)	–	–	–	–	–	–	94.4	115	95.7	109	93.5	102
O=NN(CCCl)C(=O)NC1CCCCC1 [Lomustine] (3000 nM)	–	–	–	–	–	–	103	113	93.8	89.1	99.7	112
CCN(CC)CCOc1ccc(C(=C(Cl)c2ccccc2)c2ccccc2)cc1 [Clomifene] (3000 nM)	–	–	–	–	–	–	93.3	95.4	106	92.4	132	82.8
Cc1c(N)nc([C@H](CC(N)=O)NC[C@H](N)C(N)=O)nc1C(=O)N[C@H](C(=O)N[C@H](C)[C@@H](O)[C@H](C)C(=O)N[C@H](C(=O)NCCc1nc(-c2nc(C(=O)NCCC[S+](C)C)cs2)cs1)[C@@H](C)O)[C@@H](OC1OC(CO)C(O)C(O)C1OC1OC(CO)C(O)C(OC(N)=O)C1O)c1cnc[nH]1 (stereo not given in full) [Bleomycin] (3000 nM)	–	–	–	–	–	–	88.2	96.5	92.7	107	76.5	101
COc1cc2c(Oc3ccc(NC(=O)C4(C(=O)Nc5ccc(F)cc5)CC4)cc3F)ccnc2cc1OCCCN1CCOCC1 [Foretinib] (300 nM)	–	–	–	–	–	–	91.6	68.5	84	98.8	60.9	75.4
Nc1nc(Cl)nc2c1ncn2[C@@H]1O[C@H](CO)[C@@H](O)[C@@H]1F [Clofarabine] (3000 nM)	–	–	–	–	–	–	32.9	15.4	54.5	19.6	95.6	44.4
Cc1c(C(=O)Nc2ccc(N3C[C@@H](C)O[C@@H](C)C3)nc2)cccc1-c1ccc(OC(F)(F)F)cc1 [NVP-LDE225] (3000 nM)	–	–	–	–	–	–	107	101	109	121	84.1	75.2
C[C@]12C=CC(=O)C=C1CC[C@@H]1[C@@H]2C(=O)C[C@@]2(C)[C@H]1CC[C@]2(O)C(=O)CO [Prednisone] (3000 nM)	–	–	–	–	–	–	94.2	102	99.3	104	120	93.5
